{"source": "patent US11529334B2", "about": "“Pharmaceutical composition for treating or preventing Parkinson's disease comprising STT as an active ingredient” (GACHON UNIVERSITY OF INDUSTRY—ACADEMIC COOPERATION …, priority 2019, dated 2022)", "target": "T1, TPP domain of DUSP10 (Homo sapiens, UniProt Q9Y6W6)", "T1 sequence (Q9Y6W6 321-464 limits assumed)": "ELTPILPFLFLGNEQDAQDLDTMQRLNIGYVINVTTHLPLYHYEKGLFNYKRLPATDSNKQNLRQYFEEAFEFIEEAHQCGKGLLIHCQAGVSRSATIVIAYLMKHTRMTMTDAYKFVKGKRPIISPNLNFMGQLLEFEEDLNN", "test": "SPR (Surface Plasmon Resonance) assay, Reichert SR7500DC", "assay_type": "binding", "method": "SPR (Surface Plasmon Resonance) assay was performed using Reichert SR7500DC system to confirm the presence or absence of interaction between the compounds above and the TPP domain of DUSP10.", "key": {"[1]": {"conditions": "Table 1, running buffer 1xPBS, 2% DMSO"}, "[2]": {"conditions": "Table 1, running buffer 1xPBS, pH 7.4"}}, "data": [{"smiles": "O=S(=O)(O)CCN1CCOCC1", "note": "[MES]", "values": [{"measurement": "interaction with the TPP domain (in words)", "setting": "SPR", "result": "weak interaction"}, {"measurement": "Ka (association rate)", "setting": "[1]", "result": "2.90(4) M−^1-s−^1"}, {"measurement": "Kd", "setting": "[1]", "result": 12.3, "unit": "mM"}, {"measurement": "Kd (dissociation rate)", "setting": "[1]", "result": "0.0357(6) s−^1"}, {"measurement": "Ka (association rate)", "setting": "[2]", "result": "3.50(5) M−^1-s−^1"}, {"measurement": "Kd", "setting": "[2]", "result": 17.9, "unit": "mM"}, {"measurement": "Kd (dissociation rate)", "setting": "[2]", "result": "0.0627(9) s−^1"}, {"measurement": "Kd", "setting": "Table 2, 0-200 mM analyte", "result": 63, "unit": "mM"}, {"measurement": "Ka", "setting": "Table 2, higher analyte concentrations (MES up to 200 mM, STT up to 10 mM)", "result": "0.152(7) M−^1-s−^1"}, {"measurement": "dissociation rate constant (kd)", "setting": "Table 2, second column headed Ka, higher analyte concentrations", "result": "0.0096(2) s−^1"}]}]}
